Test results: ChEMBL document CHEMBL2074355, “Biochemical mechanism of modulation of human P-glycoprotein (ABCB1) by curcumin I, II, and III purified from Turmeric powder” (Biochem Pharmacol, 2004)

Legend:
Assay type in all cases: functional, cell-based
[1] = target: T1, ATP-dependent translocase ABCB1 (Homo sapiens, UniProt P08183); test: TP_TRANSPORTER: increase in Calcein-AM intracellular accumulation in human KB-V1 cells
[2] = target: T1, ATP-dependent translocase ABCB1; test: TP_TRANSPORTER: increase in Rhodamine 123 intracellular accumulation in human KB-V1 cells
[3] = target: T1, ATP-dependent translocase ABCB1; test: TP_TRANSPORTER: increase in bodipy-FL-vinblastine intracellular accumulation in human KB-V1 cells

T1 sequence (P08183 whole entry): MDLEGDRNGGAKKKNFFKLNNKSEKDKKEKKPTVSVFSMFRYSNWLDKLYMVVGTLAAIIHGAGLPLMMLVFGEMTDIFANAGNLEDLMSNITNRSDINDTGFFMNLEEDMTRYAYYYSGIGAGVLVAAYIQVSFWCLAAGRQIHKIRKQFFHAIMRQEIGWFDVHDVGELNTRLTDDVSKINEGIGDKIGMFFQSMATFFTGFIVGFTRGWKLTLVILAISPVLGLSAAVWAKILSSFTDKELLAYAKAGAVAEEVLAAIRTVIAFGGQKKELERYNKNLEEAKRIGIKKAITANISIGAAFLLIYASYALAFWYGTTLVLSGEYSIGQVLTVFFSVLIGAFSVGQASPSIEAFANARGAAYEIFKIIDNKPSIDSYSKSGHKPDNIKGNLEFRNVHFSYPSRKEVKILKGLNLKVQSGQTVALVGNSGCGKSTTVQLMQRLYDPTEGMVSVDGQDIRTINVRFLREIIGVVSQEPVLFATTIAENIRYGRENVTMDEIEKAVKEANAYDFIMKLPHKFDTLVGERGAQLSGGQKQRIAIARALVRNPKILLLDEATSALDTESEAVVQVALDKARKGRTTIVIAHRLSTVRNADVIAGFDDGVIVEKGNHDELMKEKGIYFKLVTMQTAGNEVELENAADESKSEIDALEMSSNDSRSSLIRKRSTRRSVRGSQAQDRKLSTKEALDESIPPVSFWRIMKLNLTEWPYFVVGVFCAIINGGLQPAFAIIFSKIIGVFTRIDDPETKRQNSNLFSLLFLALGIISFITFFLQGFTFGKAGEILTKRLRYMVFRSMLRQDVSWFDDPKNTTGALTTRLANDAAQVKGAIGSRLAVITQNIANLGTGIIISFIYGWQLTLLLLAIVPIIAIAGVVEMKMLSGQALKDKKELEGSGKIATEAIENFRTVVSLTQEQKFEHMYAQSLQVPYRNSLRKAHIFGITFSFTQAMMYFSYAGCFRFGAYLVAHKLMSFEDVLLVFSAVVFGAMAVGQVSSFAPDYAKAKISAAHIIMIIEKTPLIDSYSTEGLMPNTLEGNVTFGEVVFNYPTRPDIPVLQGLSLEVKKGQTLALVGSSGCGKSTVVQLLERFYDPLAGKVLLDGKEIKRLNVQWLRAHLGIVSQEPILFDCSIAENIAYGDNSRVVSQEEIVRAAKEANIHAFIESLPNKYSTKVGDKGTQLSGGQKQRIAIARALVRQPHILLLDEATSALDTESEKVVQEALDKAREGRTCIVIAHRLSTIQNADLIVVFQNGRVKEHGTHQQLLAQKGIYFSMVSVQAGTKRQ

Activity [1]: inhibitor [+] | Activity [2]: inhibitor [+] | Activity [3]: inhibitor [+]
SMILES: COc1cc(/C=C/C(=O)CC(=O)/C=C/c2ccc(O)c(OC)c2)ccc1O [CURCUMIN]
